For experiment [1], the system named is SH-SY5Y. Description: Cytotoxicity against human SH-SY5Y cells after 24 hrs. The experiment is classed as functional, cell-based.
Experiment [2] concerns SH-SY5Y. Nature of the experiment: Antiproliferative activity against human SH-SY5Y cells at 6.25 ug/mL after 24 hrs. The experiment is classed as functional.
Experiment [3] has as its system SH-SY5Y. Description: Antiproliferative activity against human SH-SY5Y cells at 50 ug/mL after 24 hrs. The experiment is classed as functional.
Experiment [4] concerns SH-SY5Y. Description: Antiproliferative activity against human SH-SY5Y cells at 1.56 ug/mL after 24 hrs. The experiment is classed as functional.
In experiment [5] the test system is SH-SY5Y. Nature of the experiment: Antiproliferative activity against human SH-SY5Y cells at 25 ug/mL after 24 hrs. Type of experiment: functional.
Experiment [6] concerns SH-SY5Y. Nature of the experiment: Antiproliferative activity against human SH-SY5Y cells at 12.5 ug/mL after 24 hrs. The experiment is classed as functional.
Experiment [7] deals with SH-SY5Y. Nature of the experiment: Antiproliferative activity against human SH-SY5Y cells at 3.13 ug/mL after 24 hrs. The experiment is classed as functional.
The next experiment concerns IPC. Nature of the experiment: Necrotic effect in human IPC cells at 12.5 ug/mL after 3 hrs. The experiment is classed as functional, cell-based.

The structures appear in SMILES notation. Calls of active or inactive are those of the source. The calls are words filed in the database; no cut-off is given here.

`Cc1cc2c(c(=O)o1)C=C1C(C)(C)CCCC1(C)O2` (configuration not stated) came in with a half-maximal inhibitory concentration (IC50) with SH-SY5Y [1] of 31 µM. The molecule also came in with an inhibition at 6.25 µg/mL in the experiment on SH-SY5Y [2] of 18.4%. The molecule further gave an inhibition at 50 µg/mL in the experiment on SH-SY5Y [3] of 75.1%. Besides, 1.56 µg/mL produced 8.34% inhibition in the experiment on SH-SY5Y [4]. This molecule gave an inhibition at 25 µg/mL in the experiment on SH-SY5Y [5] of 74.2%. The molecule further returned an inhibition at 12.5 µg/mL with SH-SY5Y [6] of 72.9%. The same molecule registered an inhibition at 3.13 µg/mL with SH-SY5Y [7] of 1.11%.

In the experiment with SH-SY5Y [1], `Cc1cc2c(c(=O)o1)C=C1C(C)(C)CC=CC1(C)O2` (configuration not stated) showed an IC50 of 47 µM. Also, the inhibition at 6.25 µg/mL with SH-SY5Y [2] came to 16.9%. Besides, the inhibition at 50 µg/mL with SH-SY5Y [3] stood at 84.8%. The molecule further displayed an inhibition at 25 µg/mL in the experiment with SH-SY5Y [5] of 79.8%. Further, the inhibition at 12.5 µg/mL in the experiment on SH-SY5Y [6] was determined as 51.9%. The molecule also yielded an inhibition at 3.13 µg/mL in the experiment on SH-SY5Y [7] of 6.01%.

As for `CC1=Cc2c(cc(C)oc2=O)OC1C` (configuration not stated), half-maximal inhibition in the experiment with SH-SY5Y [1] (IC50) was put at 200 µM. The molecule also came in with an inhibition at 50 µg/mL with SH-SY5Y [3] of 53.8%. The molecule further displayed an inhibition at 25 µg/mL with SH-SY5Y [5] of 43.8%.

In the case of `CC1=Cc2c(cc(C)oc2=O)OC1c1ccco1` (configuration not stated), the 50% inhibitory concentration (IC50) with SH-SY5Y [1] was 49 µM. This molecule also showed an inhibition at 6.25 µg/mL in the experiment on SH-SY5Y [2] of 30.9%. This molecule came in with an inhibition at 50 µg/mL in the experiment on SH-SY5Y [3] of 64.4%. This molecule yielded an inhibition at 25 µg/mL in the experiment on SH-SY5Y [5] of 64.3%. Also, the inhibition at 12.5 µg/mL in the experiment with SH-SY5Y [6] is 50.6%. In addition, 3.13 µg/mL produced 21.6% inhibition in the experiment with SH-SY5Y [7].

On to `Cc1cc2c(c(=O)o1)C=C(C(C)C)C(CC(C)C)O2` (configuration not stated), for which it took 6.7 µM to reach half-maximal inhibition with SH-SY5Y [1] (IC50). In the experiment on SH-SY5Y [2], this molecule showed an inhibition at 6.25 µg/mL of 93.8%. Also, 50 µg/mL produced 95.7% inhibition in the experiment with SH-SY5Y [3]. Further, 1.56 µg/mL produced 38.5% inhibition in the experiment with SH-SY5Y [4]. The same molecule yielded an inhibition at 25 µg/mL with SH-SY5Y [5] of 96.6%. Besides, the result in the experiment with IPC was inactive. The molecule also displayed an inhibition at 12.5 µg/mL in the experiment on SH-SY5Y [6] of 94%. The same molecule displayed an inhibition at 3.13 µg/mL with SH-SY5Y [7] of 87.5%.

Consider `Cc1cc2c(c(=O)o1)C=C1CCCCC1(C)O2` (configuration not stated), for which, in the experiment with SH-SY5Y [1], the IC50 is 185 µM. In the experiment on SH-SY5Y [3], this molecule returned an inhibition at 50 µg/mL of 60.6%. For the same molecule, 25 µg/mL produced 11.4% inhibition in the experiment with SH-SY5Y [5]. The inhibition at 12.5 µg/mL with SH-SY5Y [6] amounted to 1.18%.

With `CCCCCCCCC1C=Cc2c(cc(C)oc2=O)O1` (configuration not stated), the IC50 in the experiment with SH-SY5Y [1] was 76 µM. For the same molecule, at 50 µg/mL the inhibition in the experiment with SH-SY5Y [3] was 83.3%. For the same molecule, in the experiment with SH-SY5Y [5], the inhibition at 25 µg/mL is 60.1%. In the experiment on SH-SY5Y [6], this molecule returned an inhibition at 12.5 µg/mL of 21.1%.

In the experiment on SH-SY5Y [1], `CCC1C=Cc2c(cc(C)oc2=O)O1` (configuration not stated) returned a half-inhibitory concentration (IC50) of more than 200 µM. The molecule also displayed an inhibition at 50 µg/mL in the experiment on SH-SY5Y [3] of 43.7%. Besides, the inhibition at 25 µg/mL in the experiment on SH-SY5Y [5] came out at 4.95%. In the experiment on SH-SY5Y [6], this molecule showed an inhibition at 12.5 µg/mL of 3.62%.

Consider `Cc1cc2c(c(=O)o1)C=C1C(C[C@H]3C[C@@H]1C3(C)C)O2` (some centres not stated), for which half-maximal inhibition in the experiment on SH-SY5Y [1] (IC50) required 70 µM. The molecule also registered an inhibition at 50 µg/mL in the experiment with SH-SY5Y [3] of 84.1%. Also, in the experiment with SH-SY5Y [5], the inhibition at 25 µg/mL stood at 67.8%. The molecule further yielded an inhibition at 12.5 µg/mL with SH-SY5Y [6] of 24.4%.

`Cc1cc2c(c(=O)o1)C=C1CCCC1O2` (configuration not stated): the half-inhibitory concentration (IC50) with SH-SY5Y [1] was found to be 252 µM. 50 µg/mL produced 51.2% inhibition in the experiment on SH-SY5Y [3]. Further, the inhibition at 25 µg/mL with SH-SY5Y [5] came to 14.9%. In addition, in the experiment with SH-SY5Y [6], 12.5 µg/mL produced 19.3% inhibition.

In turn, `CC(C)=CCCC1(C)C=Cc2c(cc(C)oc2=O)O1` (configuration not stated) registered a half-maximal inhibitory concentration (IC50) in the experiment with SH-SY5Y [1] of more than 200 µM. This molecule also returned an inhibition at 50 µg/mL with SH-SY5Y [3] of 37.4%. In the experiment with SH-SY5Y [5], this molecule yielded an inhibition at 25 µg/mL of 30.4%.

`Cc1cc2c(c(=O)o1)C=C(c1ccccc1)C(CC(C)C)O2` (configuration not stated): half-maximal inhibition in the experiment with SH-SY5Y [1] (IC50) required 93 µM. Also, the inhibition at 50 µg/mL in the experiment on SH-SY5Y [3] worked out at 81.7%. Besides, testing at 25 µg/mL in the experiment on SH-SY5Y [5] gave an inhibition of 45.7%. The same molecule yielded an inhibition at 12.5 µg/mL with SH-SY5Y [6] of 14.6%.

As a reminder, the IC50 is the concentration that gives 50% inhibition. A low value points to greater potency. For orientation: inhibition means how much of the control response was suppressed. A lower inhibition goes with little suppression.

The values above are taken from ChEMBL document CHEMBL1146337, “Efficient synthesis of substituted 7-methyl-2H,5H-pyrano[4,3-b]pyran-5-ones and evaluation of their in vitro antiproliferative/cytotoxic activities” (Bioorg Med Chem Lett, 2007).
